Test results published in PubChem BioAssay AID652226 (The Scripps Research Institute Molecular Screening Center, 2013).
Calls of active or inactive are those of the source.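 How the source made its calls: active means compounds blocking PP5 with IC50 under 10 µM; inactive means the rest.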

Molecular target: Serine/threonine-protein phosphatase 5 (Homo sapiens) (UniProt P53041)
Assay: human PP5c inhibition, concentration series – biochemical, fluorescence, OMFP substrate, set 1, selectivity assay for PP1 inhibitor project, late-stage follow-up (AID 652226)
Conditions: purified PP5c, OMFP dephosphorylation

Serine/threonine-protein phosphatase 5 (Homo sapiens), sequence (P53041 whole entry, looked up): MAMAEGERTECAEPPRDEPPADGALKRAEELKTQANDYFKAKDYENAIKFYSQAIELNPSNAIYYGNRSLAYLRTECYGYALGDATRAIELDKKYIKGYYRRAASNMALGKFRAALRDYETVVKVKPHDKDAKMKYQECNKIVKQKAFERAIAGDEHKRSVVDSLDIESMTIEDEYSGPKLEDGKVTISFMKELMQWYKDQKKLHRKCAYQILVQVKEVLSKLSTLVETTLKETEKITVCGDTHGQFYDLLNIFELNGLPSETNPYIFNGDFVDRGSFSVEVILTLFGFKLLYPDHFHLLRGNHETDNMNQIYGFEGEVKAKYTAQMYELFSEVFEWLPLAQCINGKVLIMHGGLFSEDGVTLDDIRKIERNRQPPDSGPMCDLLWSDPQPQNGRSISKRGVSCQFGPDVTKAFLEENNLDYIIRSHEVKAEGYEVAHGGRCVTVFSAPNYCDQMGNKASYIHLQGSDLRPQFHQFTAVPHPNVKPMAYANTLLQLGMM

IC50, inactive:
Oc1c(C(c2ccccn2)N2CCOCC2)cc(Cl)c2cccnc12 (stereo not drawn)
CN1CCN(C(c2ccccn2)c2ccc3cccnc3c2O)CC1 (stereo not drawn)
Oc1c(Cc2ccccn2)ccc2cccnc12
